One test has as its target T1, IRAK1 (Homo sapiens, UniProt P51617).
T1 construct: purchased Reaction Biology (RBC HotSpot)
The test is described as follows: RBC HotSpot Kinase Assay, IRAK1. In kind it is biochemical. The conditions noted are these: isolated kinase enzyme, 33P-ATP, P81 filter-binding. An excerpt:
(§1) This assay uses the isolated kinase enzyme. […] Unlike kinase binding assays that measure competition for ATP, the HotSpot Kinase Assay is a functional assay that measures catalytic activity; as such it measures relative functional potency regardless of the mechanism of enzyme inhibition. This assay uses the form of the various enzymes that are easiest to express, which may not necessarily be the form of the enzyme that exist in the cell. (Sometimes the carboxy terminus has been truncated to aid in expression, or, if it is a receptor kinase, the enzyme itself is isolated from the other parts of the receptor that are involved in regulating kinase activity.)
(§2) The reagent used was as follows: Base Reaction buffer; 20 mM Hepes (pH 7.5), 10 mM MgCl2, 1 mM EGTA, 0.01% Brij35, 0.02 mg/ml BSA, 0.1 mM Na3VO4, 2 mM DTT, 1% DMSO. Required cofactors were added individually to each kinase reaction.

The subject of another test is MOLM14 D835Y cells. The test is described as follows: MOLM14 D835Y cell viability assay (Cell Titer Glo). In kind it is cell-based. The conditions noted are these: Homo sapiens, MOLM-14, 48 h, cell viability, Cell Titer Glo, 48 hours; read-out: MOLM14 D835Y IC50. The procedure: (§3) Both cell lines have activated FLT3 receptors, each of which carry additional resistance mutations in the kinase domain (D835Y and F691L, respectively).
(§4) For viability/cytotoxicity assessments, cells were seeded into 1536-well white polystyrene tissue culture-treated Greiner plates using a Multidrop Combi dispenser (ThermoFisher), in final volume 5 μL of growth media per well, at a density of 1000 cells per well. […] Plates were incubated for 48 hours at standard incubator conditions covered by a stainless steel gasketed lid to prevent evaporation. 48 hours post compound addition, 3 μL of Cell Titer Glo (Promega) were added to each well and plates were incubated at room temperature for 15 minutes with the stainless-steel lid in place. Luminescence readings were taken using a Viewlux imager (PerkinElmer) with a 2 second exposure time per plate.
(In general: In ATP-based viability assays light output follows the ATP content of the culture.)

The test system of a further test is MOLM14 F691L cells. The test is described as follows: MOLM14 F691L cell viability assay (Cell Titer Glo). In kind it is cell-based. The conditions noted are these: Homo sapiens, MOLM-14; cell viability, Cell Titer Glo, 48 hours; read-out: MOLM14 F691L IC50. The procedure: as §3, §4
Another test has as its target T2, IRAK4 (Homo sapiens, UniProt Q9NWZ3).
T2 sequence (Q9NWZ3 1-460): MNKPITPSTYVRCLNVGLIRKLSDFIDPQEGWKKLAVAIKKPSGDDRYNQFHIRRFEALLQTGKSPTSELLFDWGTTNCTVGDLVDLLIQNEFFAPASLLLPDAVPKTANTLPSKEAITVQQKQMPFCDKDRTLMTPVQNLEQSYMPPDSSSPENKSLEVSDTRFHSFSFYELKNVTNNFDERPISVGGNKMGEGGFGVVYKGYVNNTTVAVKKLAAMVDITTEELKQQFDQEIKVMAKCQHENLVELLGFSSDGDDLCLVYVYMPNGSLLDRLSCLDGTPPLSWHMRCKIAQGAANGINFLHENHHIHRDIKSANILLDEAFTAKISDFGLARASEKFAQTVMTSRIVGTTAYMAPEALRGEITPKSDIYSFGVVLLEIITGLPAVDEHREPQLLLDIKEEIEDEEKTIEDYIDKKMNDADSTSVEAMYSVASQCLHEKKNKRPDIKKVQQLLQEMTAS
The test is described as follows: RBC HotSpot Kinase Assay, IRAK4. In kind it is biochemical. On the set-up: purchased Reaction Biology (RBC HotSpot). The settings on record: isolated kinase enzyme, 33P-ATP, P81 filter-binding.
From the text: as §1, with “enzyme. This assay is very useful for determining competition of the inhibitor for ATP and/or substrates and for measuring the kinetics of enzyme inhibition.” for “enzyme.”
as §2
The reaction procedure was as follows: • 1) Substrates were prepared in freshly prepared Reaction Buffer. • 2) Any required cofactors were delivered to the substrate solution above. • 3) Kinase was delivered into the substrate solution and gently mixed. • 4) Compounds were delivered in 1000A DM into the kinase reaction mixture by Acoustic technology (Echo550; nanoliter range), followed by incubation for 20 min at room temp. • 5) 33P-ATP was delivered into the reaction mixture to initiate the reaction. • 6) The mixture was incubated for 2 hours at room temperature. • 7) Kinase activity was detected by P81 filter-binding method.

The target in the next test is T3, FLT3 (Homo sapiens, UniProt P36888).
T3 sequence (P36888 27-993): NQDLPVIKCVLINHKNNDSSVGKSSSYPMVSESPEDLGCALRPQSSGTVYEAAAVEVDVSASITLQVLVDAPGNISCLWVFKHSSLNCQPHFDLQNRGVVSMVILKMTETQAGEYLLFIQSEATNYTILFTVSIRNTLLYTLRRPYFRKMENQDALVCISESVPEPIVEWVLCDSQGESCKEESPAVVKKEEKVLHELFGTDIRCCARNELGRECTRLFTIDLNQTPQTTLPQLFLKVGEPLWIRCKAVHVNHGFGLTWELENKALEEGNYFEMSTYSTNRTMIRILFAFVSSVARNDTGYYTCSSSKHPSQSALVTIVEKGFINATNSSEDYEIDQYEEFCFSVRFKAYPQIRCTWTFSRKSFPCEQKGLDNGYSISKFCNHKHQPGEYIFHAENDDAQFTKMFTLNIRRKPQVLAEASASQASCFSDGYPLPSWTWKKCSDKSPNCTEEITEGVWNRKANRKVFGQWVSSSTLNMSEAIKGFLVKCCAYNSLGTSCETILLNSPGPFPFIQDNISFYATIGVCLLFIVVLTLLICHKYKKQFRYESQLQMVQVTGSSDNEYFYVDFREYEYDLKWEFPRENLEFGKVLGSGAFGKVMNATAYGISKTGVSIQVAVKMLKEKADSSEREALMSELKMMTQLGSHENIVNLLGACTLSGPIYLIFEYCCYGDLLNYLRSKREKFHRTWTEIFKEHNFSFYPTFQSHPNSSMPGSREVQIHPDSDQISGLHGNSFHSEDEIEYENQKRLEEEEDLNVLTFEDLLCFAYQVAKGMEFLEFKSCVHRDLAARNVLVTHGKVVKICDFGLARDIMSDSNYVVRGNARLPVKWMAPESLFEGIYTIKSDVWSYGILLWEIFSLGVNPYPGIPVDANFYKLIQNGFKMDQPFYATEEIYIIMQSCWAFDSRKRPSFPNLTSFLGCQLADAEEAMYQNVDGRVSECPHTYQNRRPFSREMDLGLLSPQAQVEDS
The test is described as follows: RBC HotSpot Kinase Assay, FLT3. In kind it is biochemical. Also on record: purchased Reaction Biology (RBC HotSpot). The settings on record: isolated kinase enzyme, 33P-ATP, P81 filter-binding.
From the text: as §1, §2

T1 sequence (P51617 whole entry): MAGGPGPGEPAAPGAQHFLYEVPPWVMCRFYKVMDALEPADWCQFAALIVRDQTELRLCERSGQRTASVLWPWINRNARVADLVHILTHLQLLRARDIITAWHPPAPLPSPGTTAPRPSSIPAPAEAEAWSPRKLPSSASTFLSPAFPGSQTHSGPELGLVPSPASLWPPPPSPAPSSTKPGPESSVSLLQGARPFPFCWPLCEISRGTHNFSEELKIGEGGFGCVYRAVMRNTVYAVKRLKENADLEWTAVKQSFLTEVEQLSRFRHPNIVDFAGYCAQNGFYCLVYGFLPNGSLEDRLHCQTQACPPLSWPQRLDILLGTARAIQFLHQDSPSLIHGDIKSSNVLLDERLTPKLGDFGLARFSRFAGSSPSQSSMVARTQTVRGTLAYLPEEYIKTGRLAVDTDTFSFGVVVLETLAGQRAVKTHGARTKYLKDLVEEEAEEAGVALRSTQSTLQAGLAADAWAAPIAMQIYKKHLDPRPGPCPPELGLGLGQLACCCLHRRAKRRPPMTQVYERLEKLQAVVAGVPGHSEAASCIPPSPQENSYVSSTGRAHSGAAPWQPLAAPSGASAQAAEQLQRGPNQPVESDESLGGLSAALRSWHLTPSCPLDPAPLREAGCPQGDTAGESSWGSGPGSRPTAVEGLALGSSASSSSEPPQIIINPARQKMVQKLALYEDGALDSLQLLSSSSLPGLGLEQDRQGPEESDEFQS

As to `FC(F)COc1cc2ncc(-c3cncc(N[C@H]4CNCC[C@@H]4F)n3)n2nc1C1CC1` [Compound 7a, 6-(6-cyclopropyl-7-(2,2-difluoroethoxy)imidazo[1,2-b]pyridazin-3-yl)-N-((3 S,4S)-4-fluoropiperidin-3-yl)pyrazin-2-amine], the half-inhibitory concentration (IC50) (usually the midpoint of a concentration-inhibition curve) on IRAK1 is 73 nM; in the test on MOLM14 D835Y cells, 10 nM; in the test with MOLM14 F691L cells, 20 nM; at IRAK4, 2 nM; on FLT3 it was < 0.5 nM.
For `c1cc(-c2cnc3cc(OC4CC4)c(C4CC4)nn23)nc(N[C@@H]2CCCNC2)n1` [Compound 11a, (R)-4-(7-cyclopropoxy-6-cyclopropylimidazo[1,2-b]pyridazin-3-yl)-N-(piperidin-3-yl)pyrimidin-2-amine], the IC50 at IRAK1 was 52 nM; in the test with MOLM14 D835Y cells, 22 nM; in the test on MOLM14 F691L cells, 80 nM; on IRAK4 it was 5 nM; on FLT3 it was < 0.5 nM.
Take `F[C@H]1CNC[C@@H]1Nc1cncc(-c2cnc3cc(OC4CC4)c(C4CC4)nn23)n1` [Compound 14a, 6-(7-cyclopropoxy-6-cyclopropylimidazo[1,2-b]pyridazin-3-yl)-N-((3S,4S)-4-fluoropyrrolidin-3-yl)pyrazin-2-amine]: the half-inhibitory concentration (IC50) at IRAK1 is 117 nM; with MOLM14 D835Y cells, 101 nM; with MOLM14 F691L cells, 318 nM; on IRAK4 it was 16 nM; on FLT3 it was < 0.5 nM.
Take `c1ncc(-c2cnc3cc(OC4CC4)c(C4CC4)nn23)nc1N[C@@H]1CCCNC1` [Compound 15a, (R)-6-(7-cyclopropoxy-6-cyclopropylimidazo[1,2-b]pyridazin-3-yl)-N-(piperidin-3-yl)pyrazin-2-amine]: the IC50 on IRAK1 was 258 nM; in the test on MOLM14 D835Y cells, 45 nM; in the test on MOLM14 F691L cells, 113 nM; at IRAK4, 18 nM; on FLT3, < 0.5 nM.
Regarding `COc1cc2ncc(-c3nc(N[C@@H]4CCCNC4)ncc3F)n2nc1C(C)(C)O` [Compound 43a, (R)-2-(3-(5-fluoro-2-(piperidin-3-ylamino)pyrimidin-4-yl)-7-methoxyimidazo[1,2-b]pyridazin-6-yl)propan-2-ol], the concentration for half-maximal inhibition (IC50) amounted to 50 nM on IRAK1, 23 nM with MOLM14 D835Y cells, 29 nM on IRAK4 and 1 nM at FLT3.
For `COc1cc2ncc(-c3nc(N[C@H]4CNC[C@@H]4F)ncc3F)n2nc1C(C)(C)O` [Compound 44a, 2-(3-(5-fluoro-2-(((3S,4S)-4-fluoropyrrolidin-3-yl)amino)pyrimidin-4-yl)-7-methoxyimidazo[1,2-b]pyridazin-6-yl)propan-2-ol], the IC50 was 32 nM at IRAK1, 51 nM in the test on MOLM14 D835Y cells, 4 nM at IRAK4 and < 0.5 nM on FLT3.
On to `CC(C)(O)c1ccc2ncc(-c3nc(N[C@H]4CNC[C@@H]4F)ncc3F)n2c1` [Compound 47a, 2-(3-(5-fluoro-2-(((3S,4S)-4-fluoropyrrolidin-3-yl)amino)pyrimidin-4-yl)imidazo[1,2-a]pyridin-6-yl)propan-2-ol], for which the IC50 on IRAK1 was 13 nM; in the test with MOLM14 D835Y cells, 46 nM; at IRAK4, 1 nM; at FLT3, < 0.5 nM.
For the compound `COc1cc2ncc(-c3nc(N[C@H]4CNC[C@@H]4F)ncc3F)n2nc1C1CC(F)(F)C1` [Compound 50a, 4-(6-(3,3-difluorocyclobutyl)-7-methoxyimidazo[1,2-b]pyridazin-3-yl)-5-fluoro-N-((3S,4S)-4-fluoropyrrolidin-3-yl)pyrimidin-2-amine], the IC50 was 3 nM at IRAK1, 29 nM in the test with MOLM14 D835Y cells, 0.8 nM at IRAK4 and < 0.5 nM at FLT3.
On to `COc1cc2ncc(-c3cncc(N[C@H]4CNC[C@@H]4F)n3)n2nc1C1CC(F)(F)C1` [Compound 71a, 6-(6-(3,3-difluorocyclobutyl)-7-methoxyimidazo[1,2-b]pyridazin-3-yl)-N-((3S,4S)-4-fluoropyrrolidin-3-yl)pyrazin-2-amine], for which the IC50 on IRAK1 is 342 nM; with MOLM14 D835Y cells it was 576 nM; on IRAK4 it was 64 nM; on FLT3, 1 nM.
`COc1cc2ncc(-c3cncc(N[C@@H]4CCCNC4)n3)n2nc1C1CC(F)(F)C1` [Compound 72a, (R)-6-(6-(3,3-difluorocyclobutyl)-7-methoxyimidazo[1,2-b]pyridazin-3-yl)-N-(piperidin-3-yl)pyrazin-2-amine]: the concentration for half-maximal inhibition (IC50) at IRAK1 was 127 nM; with MOLM14 D835Y cells it was 289 nM; at IRAK4, 60 nM; on FLT3, 0.8 nM.
In the same order, the values of `COc1cc2ncc(-c3cncc(N[C@H]4CNCC[C@@H]4F)n3)n2nc1C1CC(F)(F)C1` [Compound 73a, 6-(6-(3,3-difluorocyclobutyl)-7-methoxyimidazo[1,2-b]pyridazin-3-yl)-N-((3S,4S)-4-fluoropiperidin-3-yl)pyrazin-2-amine] are 129 nM, 204 nM, 12 nM and < 0.5 nM.
Take `COc1cc2ncc(-c3ccnc(N[C@@H]4CCCNC4)n3)n2nc1C1CCC1` [Compound 78a, (R)-4-(6-cyclobutyl-7-methoxyimidazo[1,2-b]pyridazin-3-yl)-N-(piperidin-3-yl)pyrimidin-2-amine]: the IC50 at IRAK1 is 75 nM; in the test on MOLM14 D835Y cells, 29 nM; at IRAK4 it was 7 nM; on FLT3, < 0.5 nM.
